# In ChEMBL document CHEMBL1133893, “Design and synthesis of a highly selective EP4-receptor agonist. Part 1: 3,7-dithiaPG derivatives with high selectivity” (Bioorg Med Chem Lett, 2001):
# How the values were obtained:
# [1] = target: T1, Prostaglandin E2 receptor EP4 subtype (Mus musculus, UniProt P32240); assay: Effective concentration which increases intracellular c-AMP production in mouse Prostanoid EP4 receptor; assay type: functional, cell-based
# [2] = target: T1, Prostaglandin E2 receptor EP4 subtype; assay: Evaluated for its competitive binding affinity towards mouse Prostanoid EP4 receptor in CHO cells expressing prostanoid receptor; assay type: cell-based
# [3] = target: Prostaglandin E2 receptor EP2 subtype (Mus musculus, UniProt Q62053); assay: Evaluated for its competitive binding affinity towards mouse Prostanoid EP2 receptor in CHO cells expressing prostanoid receptor; assay type: cell-based
# [4] = target: Prostacyclin receptor (Homo sapiens, UniProt P43119); assay: Evaluated for its competitive binding affinity towards human Prostanoid IP receptor in CHO cells; assay type: cell-based
# [5] = target: T2, Prostaglandin E2 receptor EP3 subtype (Mus musculus, UniProt P30557); assay: Evaluated for its competitive binding affinity towards mouse Prostanoid EP3 receptor in CHO cells expressing prostanoid receptor; assay type: cell-based
# T2 sequence (P30557 whole entry): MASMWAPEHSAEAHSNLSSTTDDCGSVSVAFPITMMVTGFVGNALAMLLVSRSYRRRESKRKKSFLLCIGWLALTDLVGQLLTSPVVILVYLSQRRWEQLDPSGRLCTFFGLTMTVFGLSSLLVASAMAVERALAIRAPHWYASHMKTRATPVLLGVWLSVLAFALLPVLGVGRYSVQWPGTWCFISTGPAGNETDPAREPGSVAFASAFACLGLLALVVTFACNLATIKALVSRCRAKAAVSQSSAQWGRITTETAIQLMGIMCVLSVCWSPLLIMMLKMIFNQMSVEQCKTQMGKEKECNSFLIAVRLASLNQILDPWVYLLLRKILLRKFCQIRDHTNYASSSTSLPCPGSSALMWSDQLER
# [6] = target: T3, Prostaglandin E2 receptor EP1 subtype (Mus musculus, UniProt P35375); assay: Evaluated for its competitive binding affinity towards mouse Prostanoid EP1 receptor in CHO cells expressing prostanoid receptor; assay type: cell-based
# T3 sequence (P35375 whole entry): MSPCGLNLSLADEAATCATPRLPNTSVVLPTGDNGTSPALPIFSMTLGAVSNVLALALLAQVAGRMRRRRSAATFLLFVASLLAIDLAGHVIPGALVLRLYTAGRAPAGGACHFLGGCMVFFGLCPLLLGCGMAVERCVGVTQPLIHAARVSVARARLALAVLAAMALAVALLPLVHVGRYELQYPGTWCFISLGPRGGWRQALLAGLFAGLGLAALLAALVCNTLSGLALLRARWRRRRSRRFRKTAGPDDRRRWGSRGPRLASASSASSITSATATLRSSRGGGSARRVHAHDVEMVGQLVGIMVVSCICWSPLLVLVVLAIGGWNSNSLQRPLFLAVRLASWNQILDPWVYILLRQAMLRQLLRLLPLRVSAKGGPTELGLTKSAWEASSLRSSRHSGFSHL
# [7] = Selectivity ratio (Prostanoid EP3 receptor/Prostanoid EP4 receptor) was determined
# Prostacyclin receptor, sequence (P43119 whole entry): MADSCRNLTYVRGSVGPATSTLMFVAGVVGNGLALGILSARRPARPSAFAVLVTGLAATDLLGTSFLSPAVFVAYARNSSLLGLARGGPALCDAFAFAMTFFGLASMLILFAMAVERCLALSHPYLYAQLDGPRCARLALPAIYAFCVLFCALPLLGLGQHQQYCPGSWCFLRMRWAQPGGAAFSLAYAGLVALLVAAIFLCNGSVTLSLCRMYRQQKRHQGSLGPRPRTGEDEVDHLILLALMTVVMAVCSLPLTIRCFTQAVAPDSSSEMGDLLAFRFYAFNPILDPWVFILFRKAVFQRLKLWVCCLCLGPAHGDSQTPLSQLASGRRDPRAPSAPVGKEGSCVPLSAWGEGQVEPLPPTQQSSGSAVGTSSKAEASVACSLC
# Prostaglandin E2 receptor EP2 subtype, sequence (Q62053 whole entry): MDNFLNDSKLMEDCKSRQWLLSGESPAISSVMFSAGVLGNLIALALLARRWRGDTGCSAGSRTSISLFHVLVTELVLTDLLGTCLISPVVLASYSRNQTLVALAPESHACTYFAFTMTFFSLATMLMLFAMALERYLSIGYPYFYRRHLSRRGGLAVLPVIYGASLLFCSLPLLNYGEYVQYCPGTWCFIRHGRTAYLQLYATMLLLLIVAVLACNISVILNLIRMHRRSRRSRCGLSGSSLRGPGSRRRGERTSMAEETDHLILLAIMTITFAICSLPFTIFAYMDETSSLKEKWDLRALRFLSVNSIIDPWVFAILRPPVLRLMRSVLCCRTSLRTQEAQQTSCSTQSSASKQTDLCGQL
# T1 sequence (P32240 whole entry): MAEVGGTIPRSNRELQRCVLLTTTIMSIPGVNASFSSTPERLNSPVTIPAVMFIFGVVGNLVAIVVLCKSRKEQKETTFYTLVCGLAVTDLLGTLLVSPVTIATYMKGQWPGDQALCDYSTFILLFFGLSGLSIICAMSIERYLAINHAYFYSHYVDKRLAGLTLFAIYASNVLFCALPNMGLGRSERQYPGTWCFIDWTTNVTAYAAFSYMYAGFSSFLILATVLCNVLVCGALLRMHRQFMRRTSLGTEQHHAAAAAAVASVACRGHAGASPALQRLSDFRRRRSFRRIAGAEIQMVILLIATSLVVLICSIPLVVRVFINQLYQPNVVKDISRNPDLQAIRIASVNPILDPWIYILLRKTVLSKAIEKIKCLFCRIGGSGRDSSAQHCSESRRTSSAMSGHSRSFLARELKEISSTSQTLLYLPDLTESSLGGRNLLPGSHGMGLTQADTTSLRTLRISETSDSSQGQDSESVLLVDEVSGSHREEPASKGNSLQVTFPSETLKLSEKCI
EC50 [1] [nM],Ki [2] [nM],Ki [3] [nM],Ki [4] [µM],Ki [5] [nM],Ki [6] [nM],Selectivity ratio [7],Structure (SMILES)
7.7,2.3,150,0.51,11,1200,,CCCCC[C@H](O)/C=C/[C@H]1[C@H](O)CC(=O)[C@@H]1SCCCOCC(=O)O
7800,28,1000,> 10,3.5,50,,CCCCC[C@H](O)/C=C/[C@H]1[C@H](O)CC(=O)[C@@H]1CSCCSCC(=O)O
34,7,3900,> 10,130,2600,,O=C(O)CSCCCS[C@H]1C(=O)C[C@@H](O)[C@@H]1/C=C/[C@@H](O)Cc1ccccc1
4.8,6,5300,> 10,430,> 10000,70,CSCc1cccc(C[C@H](O)/C=C/[C@H]2[C@H](O)CC(=O)[C@@H]2SCCCSCC(=O)O)c1
3.1,3.1,2100,> 10,1200,> 10000,120,COCc1cccc(C[C@H](O)/C=C/[C@H]2[C@H](O)CC(=O)[C@@H]2SCCCSCC(=O)O)c1
270,7.3,1200,> 10,72,> 10000,,Cc1ccc(C[C@H](O)/C=C/[C@H]2[C@H](O)CC(=O)[C@@H]2SCCCSCC(=O)O)cc1
420,22,2500,> 10,140,> 10000,,Cc1ccccc1C[C@H](O)/C=C/[C@H]1[C@H](O)CC(=O)[C@@H]1SCCCSCC(=O)O
12,8.5,3100,> 10,3000,> 10000,,COCCc1cccc(C[C@H](O)/C=C/[C@H]2[C@H](O)CC(=O)[C@@H]2SCCCSCC(=O)O)c1
32,7.1,1500,> 10,220,3100,50,COc1ccc(C[C@H](O)/C=C/[C@H]2[C@H](O)CC(=O)[C@@H]2SCCCSCC(=O)O)cc1
,0.4,14,0.0033,6.1,11,,CCCC[C@H](C)C[C@H](O)/C=C/[C@H]1[C@H](O)CC(=O)[C@@H]1SCCCCCC(=O)O
37,9.9,> 10000,> 10,510,> 10000,50,COc1cccc(C[C@H](O)/C=C/[C@H]2[C@H](O)CC(=O)[C@@H]2SCCCSCC(=O)O)c1
4.3,0.7,280,> 10,220,610,,CCCCC[C@H](O)/C=C/[C@H]1[C@H](O)CC(=O)[C@@H]1SCCCSCC(=O)O
10,5.2,7700,> 10,3000,> 10000,,CCCOCc1cccc(C[C@H](O)/C=C/[C@H]2[C@H](O)CC(=O)[C@@H]2SCCCSCC(=O)O)c1
2.5,9.4,> 10000,> 10,4500,> 10000,450,CCOCc1cccc(C[C@H](O)/C=C/[C@H]2[C@H](O)CC(=O)[C@@H]2SCCCSCC(=O)O)c1
2.5,,41,,,22,,CCCCC[C@H](O)/C=C/[C@H]1[C@H](O)CC(=O)[C@@H]1CCCCCCC(=O)O [ALPROSTADIL]
170,3.2,1200,> 10,4.4,610,,CCCCC[C@H](O)/C=C/[C@H]1[C@H](O)CC(=O)[C@@H]1SCCSCCC(=O)O
3.7,0.7,100,0.87,4.5,120,,CCCCC[C@H](O)/C=C/[C@H]1[C@H](O)CC(=O)[C@@H]1SCCCCCC(=O)O
580,32,2600,> 10,1100,> 10000,50,COc1ccccc1C[C@H](O)/C=C/[C@H]1[C@H](O)CC(=O)[C@@H]1SCCCSCC(=O)O
44,100,> 10000,> 10,> 10000,> 10000,,COCCCc1cccc(C[C@H](O)/C=C/[C@H]2[C@H](O)CC(=O)[C@@H]2SCCCSCC(=O)O)c1
2.8,1.9,760,> 10,100,> 10000,,Cc1cccc(C[C@H](O)/C=C/[C@H]2[C@H](O)CC(=O)[C@@H]2SCCCSCC(=O)O)c1
